# Test results reported in patent publication EP1333824B1, “TREATMENT OF SEXUAL DYSFUNCTION WITH BOMBESIN RECEPTOR ANTAGONISTS” (Warner-Lambert Company LLC, priority 2000, dated 2002).
# Biological target: T1, human GRP receptor (BB2) (Homo sapiens, UniProt P30550)
# T1 construct: expressed in transfected cells
# Experiment: BB2 binding assay ([125I][Tyr4]bombesin, CHO-K1 cell membranes)
# Details: Table 7; N-terminal sulfonamide derivatives
# Description: In the following experiments, measurement of BB1 and BB2 binding was as follows. […] The final pellet was resuspended in assay buffer to a final cell concentration of 1.5 × 10^5/mL. […] Nonspecific binding was defined by 1µM bombesin. […] Radioactivity bound was determined using a gamma counter.
# All competition data was analysed using nonlinear regression utilizing iterative curve-plotting procedures in Prism® (GraphPad Software Inc., San Diego, USA).
# T1 sequence (P30550 whole entry): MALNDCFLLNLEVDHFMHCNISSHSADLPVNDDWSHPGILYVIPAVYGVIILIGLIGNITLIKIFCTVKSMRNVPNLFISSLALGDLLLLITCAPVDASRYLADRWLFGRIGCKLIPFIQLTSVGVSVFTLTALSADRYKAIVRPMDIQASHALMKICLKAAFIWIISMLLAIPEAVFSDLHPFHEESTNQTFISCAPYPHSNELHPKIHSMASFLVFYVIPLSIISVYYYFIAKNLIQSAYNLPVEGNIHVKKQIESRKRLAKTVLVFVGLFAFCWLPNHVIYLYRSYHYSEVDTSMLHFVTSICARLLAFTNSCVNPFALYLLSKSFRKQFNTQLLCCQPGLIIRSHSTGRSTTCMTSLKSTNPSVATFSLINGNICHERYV
Compound,IC50 [µM],BB2 IC50
"Cc1nc(S(=O)(=O)N[C@@](C)(Cc2c[nH]c3ccccc23)C(=O)NCC2(c3ccccn3)CCCCC2)cn1C [Example 144, (S)-2-(1,2-Dimethyl-1H-imidazole-4-sulfonylamino)-3-(1H-indol-3-yl)-2-methyl-N-(1-pyridin-2-yl-cyclohexylmethyl)-propionamide]",> 10,–
"C[C@@](Cc1c[nH]c2ccccc12)(NS(=O)(=O)c1cc([N+](=O)[O-])ccc1Cl)C(=O)NCC1(c2ccccn2)CCCCC1 [Example 147, (S)-2-(2-Chloro-5-nitro-benzenesulfonylamino)-3-(1H-indol-3-yl)-2-methyl-N-(1-pyridin-2-yl-cyclohexylmethyl)-propionamide]",–,Ia
"C[C@@](Cc1c[nH]c2ccccc12)(NS(=O)(=O)c1ccc(Cl)cc1[N+](=O)[O-])C(=O)NCC1(c2ccccn2)CCCCC1 [Example 149, (S)-2-(4-Chloro-2-nitro-benzenesulfonylamino)-3-(1H-indol-3-yl)-2-methyl-N-(1-pyridin-2-yl-cyclohexylmethyl)-propionamide]",> 10,–
"C[C@@](Cc1c[nH]c2ccccc12)(NS(=O)(=O)c1ccc(OC(F)(F)F)cc1)C(=O)NCC1(c2ccccn2)CCCCC1 [Example 151, (S)-3-(1H-Indol-3-yl)-2-methyl-N-(1-pyridin-2-yl-cyclohexylmethyl)-2-(4-trifluoromethoxy-benzenesulfonylamino)-propion amide]",> 10,–
"COC(=O)c1ccccc1S(=O)(=O)N[C@@](C)(Cc1c[nH]c2ccccc12)C(=O)NCC1(c2ccccn2)CCCCC1 [Example 155, 2-{(S)-2-(1H-Indol-3-yl)-1-methyl-1-[(1-pyridin-2-yl-cyclohexylmethyl)-carbamoyl]-ethylsulfamoyl} -benzoic acid methyl ester]",> 10,–
"COc1cc(C)ccc1S(=O)(=O)N[C@@](C)(Cc1c[nH]c2ccccc12)C(=O)NCC1(c2ccccn2)CCCCC1 [Example 159, (S)-3-(1H-Indol-3-yl)-2-(2-methoxy-4-methyl-benzenesulfonylamino)-2-methyl-N-(1-pyridin-2-yl-cyclohexylmethyl)-propionamide]",> 10,–
"C[C@@](Cc1c[nH]c2ccccc12)(NS(=O)(=O)c1cnc(Cl)c(Br)c1)C(=O)NCC1(c2ccccn2)CCCCC1 [Example 161, (S)-2-(5-Bromo-6-chloro-pyridine-3-sulfonylamino)-3-(1H-indol-3-yl)-2-methyl-N-(1-pyridin-2-yl-cyclohexylmethyl)-propionamide]",> 10,–
"C[C@@](Cc1c[nH]c2ccccc12)(NS(=O)(=O)c1ccc([N+](=O)[O-])cc1[N+](=O)[O-])C(=O)NCC1(c2ccccn2)CCCCC1 [Example 162, (S)-2-(2,4-Dinitro-benzenesulfonylamino)-3-(1H-indol-3-yl)-2-methyl-N-(1-pyridin-2-yl-cyclohexylmethyl)-propionamide]",> 10,–
"CC(C)(C)c1ccc(S(=O)(=O)N[C@@](C)(Cc2c[nH]c3ccccc23)C(=O)NCC2(c3ccccn3)CCCCC2)cc1 [Example 164, (S)-2-(4-tert-Butyl-benzenesulfonylamino)-3-(1H-indol-3-yl)-2-methyl-N-(1-pyridin-2-yl-cyclohexylmethyl)-propionamide]",> 10,–
"C[C@@](Cc1c[nH]c2ccccc12)(NS(=O)(=O)c1ccc(Cl)c(C(F)(F)F)c1)C(=O)NCC1(c2ccccn2)CCCCC1 [Example 166, (S)-2-(Chloro-trifluoromethyl-benzenesulfonylamino)-3-(1H-indol-3-yl)-2-methyl-N-(1-pyridin-2-yl-cyclohexylmethyl)-propionamide]",> 10,–
"CCCCc1ccc(S(=O)(=O)N[C@@](C)(Cc2c[nH]c3ccccc23)C(=O)NCC2(c3ccccn3)CCCCC2)cc1 [Example 168, (S)-2-(4-Butyl-benzenesulfonylamino)-3-(1H-indol-3-yl)-2-methyl-N-(1-pyridin-2-yl-cyclohexylmethyl)-propionamide]",> 10,–

# The remaining lines, values ahead:
IC50 [µM],BB2 IC50,Compound
> 10,–,"C[C@@](Cc1c[nH]c2ccccc12)(NS(=O)(=O)c1cccc2cccc([N+](=O)[O-])c12)C(=O)NCC1(c2ccccn2)CCCCC1 [Example 146, (S)-3-(1H-Indol-3-yl)-2-methyl-2-(8-nitro-naphthalene-1-sulfonylamino)-N-(1-pyridin-2-yl-cyclohexylmethyl)-propionamide]"
–,Ia,"C[C@@](Cc1c[nH]c2ccccc12)(NS(=O)(=O)c1c(Cl)cc(Cl)cc1Cl)C(=O)NCC1(c2ccccn2)CCCCC1 [Example 148, (S)-3-(1H-Indol-3-yl)-2-methyl-N-(1-pyridin-2-yl-cyclohexylmethyl)-2-(2,4,6-trichloro-benzenesulfonylamino)-propionamide]"
> 10,–,"C[C@@](Cc1c[nH]c2ccccc12)(NS(=O)(=O)c1ccc(S(=O)(=O)c2ccccc2)s1)C(=O)NCC1(c2ccccn2)CCCCC1 [Example 150, (S)-2-(5-Benzenesulfonyl-thiophene-2-sulfonylamino)-3-(1H-indol-3-yl)-2-methyl-N-(1-pyridin-2-yl-cyclohexylmethyl)-propionamide]"
> 10,–,"C[C@@](Cc1c[nH]c2ccccc12)(NS(=O)(=O)c1ccc(-c2ccccn2)s1)C(=O)NCC1(c2ccccn2)CCCCC1 [Example 160, (S)-3-(1H-Indol-3-yl)-2-methyl-N-(1-pyridin-2-yl-cyclohexylmethyl)-2-(5-pyridin-2-yl-thiophene-2-sulfonylamino)-propionamide]"
> 10,–,"C[C@@](Cc1c[nH]c2ccccc12)(NS(=O)(=O)c1ccc(S(C)(=O)=O)cc1)C(=O)NCC1(c2ccccn2)CCCCC1 [Example 163, (S)-3-(1H-Indol-3-yl)-2-(4-methanesulfonyl-benzenesulfonylamino)-2-methyl-N-(1-pyridin-2-yl-cyclohexylmethyl)-propionamide]"
> 10,–,"Cc1cc(S(=O)(=O)N[C@@](C)(Cc2c[nH]c3ccccc23)C(=O)NCC2(c3ccccn3)CCCCC2)c(Cl)cc1Cl [Example 165, (S)-2-(2,4-Dichloro-5-methyl-benzenesulfonylamino)-3-(1H-indol-3-yl)-2-methyl-N-(1-pyridin-2-yl-cyclohexylmethyl)-propionamide]"

# System: Ovariectomised adult female Sprague Dawley rats
# Experiment: Female rat sexual proceptivity test (time investigating male vs female stimulus)
# Format: in vivo
# Details: Example 3; Compound (1) 15mg/kg i.p. 1h before test; progesterone 0.5mg/0.1ml s.c. 4h before; vs vehicle, P<0.01
# Description: Ovariectomised adult female Sprague Dawley rats (180-200g, from Charles River) were housed in groups of 6 in a reversed lighting system of 12h light:dark (lights off 7.00-19.00h). Two weeks after ovariectomy they were used for sexual activity tests. The experiments started at least 5h into the dark period.
# Tests were carried out in a circular arena of 90cm diameter, surrounded by a 30cm high wall. Two small cages with wire-mesh front (15x15cm) are fixed into the wall such that the front of the cage is «flush» with the wall and the 2 cages are opposite each other. They contained two stimuli animals: an intact sexually experienced male and a receptive female (ovariectomised, primed with 5µg oestradiol benzoate dissolved in corn oil and injected subcutaneously 48 hours before the test and with 0.5 mg of progesterone four hours before the test). Sexually naive test and control animals were used. Forty eight hours before the tests, both the test and control animals were primed with 5µg oestradiol benzoate. For animals used as positive controls, progesterone (0.5mg/0.1ml) was dissolved in corn oil and administered subcutaneously (s.c.), 4h before the test. Test and control animals were introduced one at a time for 10 minute periods into the arena. During the 10min test, the time that the test or positive control animal spent investigating each stimulus animal was noted. The arena was thoroughly cleaned between animals. The position of the male/female stimuli boxes was randomised between animals, in order to avoid place preference. The difference in the percentage of time spent investigating the male minus the female stimuli was calculated, out of the total time spent investigating stimuli animals. […]
# Ovariectomised adult female Sprague Dawley rats (180-200g) were housed in groups of 5 in a reversed lighting system of 12h light:dark (lights off 5.00-17.00h). They were used for the experiments at least two weeks after ovariectomy. Forty eight hours before tests, the animals were primed with oestradiol benzoate (5µg/0.1ml in corn oil, s.c.). On day 1, progesterone (0.5mg/0.1ml, in corn oil, s.c.) was administered to one of the groups 4h before tests, as a positive control. […] The test lasted 10 minutes and was carried out as described before. The difference in the percentage of time spent investigating the male minus the female stimuli was calculated, out of the total time spent investigating stimuli animals. Animals were submitted to a test on day 1 and on day 15. […] On day 15 the test took place again, as described for day 1. […]
row,Compound,"proceptivity, day 1"
1,"CC(=O)[C@H]1CC[C@H]2[C@@H]3CCC4=CC(=O)CC[C@]4(C)[C@H]3CC[C@]12C [progesterone, reference compound]",stimulatory effect on proceptivity

# Same assay, conditions: Example 5; NMB 100ng i.c.v. 10min before tests; P<0.001 vs progesterone
row,Compound,proceptivity in progesterone-treated rats
1,"neuromedin B [NMB, reference compound]",significantly reduced proceptivity

# Same assay, conditions: Example 5; progesterone 0.5mg/0.1ml s.c. 4h before test, compared to vehicle group
row,Compound,percentage of time spent investigating the male stimulus
1,"CC(=O)[C@H]1CC[C@H]2[C@@H]3CCC4=CC(=O)CC[C@]4(C)[C@H]3CC[C@]12C [progesterone, reference compound]",increased the percentage of time spent investigating the male stimulus
